The source of these data is patent US20250002503A1, “OXADIAZASPIRO COMPOUNDS FOR USE IN THE TREATMENT OF MOTONEURON DEGENERATION OR IN NEUROPROTECTION” (ESTEVE PHARMACEUTICALS, S.A., priority 2021, published 2025).

Read-outs that look alike come from different tables or passages of the source.

For data set [1], the target named is human Sig-1R (Homo sapiens, UniProt Q99720). Description: Affinity for the human Sig-1R. The class given is binding. The protocol: (§1) A selectivity profile (Spectrum Screen) including a panel with more than 180 binding assays for different receptors, ion channels, transporters and enzymes was performed for compound A and compound B at EurofinsPanlabs according to their specifications.
Chain of human Sig-1R (Q99720 whole entry): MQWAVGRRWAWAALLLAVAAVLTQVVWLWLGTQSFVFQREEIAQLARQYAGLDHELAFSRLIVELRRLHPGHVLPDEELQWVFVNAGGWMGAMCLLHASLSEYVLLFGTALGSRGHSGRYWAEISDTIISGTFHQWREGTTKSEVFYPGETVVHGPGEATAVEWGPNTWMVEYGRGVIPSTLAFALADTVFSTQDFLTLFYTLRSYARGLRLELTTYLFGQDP

Data set [2] can be described thus: Pharmacokinetics in plasma and brain after single i.p. dose. The following applies: for half-life: t1/2 (terminal half-life); for half-life / AUC, brain / Cmax, brain / penetration into the brain: single i.p. 10 mg/kg; for half-life / AUC, brain / Cmax, brain: female mice; for penetration into the brain: mice.
Description: (§2) Blood and brain samples were extracted at selected time points (15 min, 1, 3 and 6 h) from two animals per sampling point. Blood samples were collected by intracardiac puncture into heparinized tubes. Plasma was obtained by blood centrifugation at 4° C. and 2280 g for 10 min. Plasma and brain samples were kept at −80° C. until analysis. Brains were homogenized with Dulbecco's phosphate saline buffer pH 7.4 (4 ml/g tissue). Plasma and brain samples were assayed by ultra-performance liquid chromatography-triple quadrupole mass spectrometry (UPLC-MS/MS) after protein precipitation. Standard pharmacokinetic parameters, such as the area under the curve (AUC), peak plasma concentration (Cmax), time to peak concentration (tmax), and terminal half-life (t1/2) were determined by noncompartmental analysis of the plasma and brain concentration-time curves (Phoenix v.6.2.1.51, Pharsight, CA).
The target in data set [3] is Sig-2R (Homo sapiens, UniProt Q5BJF2). Description: Affinity for the Sig-2R. The following applies: not shown. The class given is binding. The protocol:
as §1

Data set [4] concerns motoneurons (MNs) in spinal cord organotypic cultures. Description: Spinal cord organotypic cultures (SCOCs) under THA chronic excitotoxicity, SMI-32 positive MN count. The format is cell-based, Sprague-Dawley rats. The conditions noted are these: THA 100 μM, 28 DIV.
Description: Briefly, the spinal cord was collected and cut in 350 μm thick transverse sections with a Mcllwain Tissue Chopper. Four lumbar sections per sample were transferred onto Millicell-CM nets (0.4 μm, PICM03050, Millipore) in medium [50% (v/v) minimal essential medium (MEM, M5775, Sigma), 2 mM glutamine, 25 mM HEPES, 25% (v/v) Hank's Balanced Salt Solution (HBSS^−/−, 14175, Gibco) supplemented with 25.6 mg/ml glucose and 25% (v/v) heat-inactivated horse serum (26050-088, Gibco), pH=7.2]. Cultures were maintained at 37° C. in a 5% CO2 humidified cabin and let to stabilize. After 7 days in vitro (DIV), DL-threo-b-hydroxyaspartic acid (THA; 100 μM) was added to induce chronic excitotoxicity (Rothstein et al., 1993). The neuroprotective effect of each Sig-1R ligand was assessed by its coaddition to the culture with THA and renewing at each medium change. […] In vitro experiments were performed in three independent cultures, with at least 12 different SCOCs for each experimental condition.
Slices were maintained for 28 DIV and then fixed with 4% paraformaldehyde. […] MN survival was assessed by counting all SMI-32 positive neurons in each spinal cord using the Cell Counter plugin of ImageJ software.
Data set [5] concerns SOD1^G93A mice. The conditions noted are these: for NMJ innervation (proportion of innervated endplates) of hindlimb muscle: SOD1^G93A mice at 16 weeks; for NMJ innervation (proportion of innervated endplates) of hindlimb muscle / astrocyte activation (GFAP) in ventral horn: compounds 5 mg/kg; for NMJ innervation (proportion of innervated endplates) of hindlimb muscle / CMAP amplitude of TA and plantar muscles / astrocyte activation (GFAP) in ventral horn: PRE-084 0.25 mg/kg i.p. bid; for CMAP amplitude of TA and plantar muscles / number of surviving spinal MNs per section / astrocyte activation (GFAP) in ventral horn: SOD1^G93A mice; for CMAP amplitude of TA and plantar muscles: 11 and 13 weeks, compound 5 mg/kg; for number of surviving spinal MNs per section: 16 weeks of age, mean±SEM; for astrocyte activation (GFAP) in ventral horn: 16 weeks. The method, then:
Motor nerve conduction tests were performed before the surgery to obtain baseline values and at the end of the follow up in the rhizotomy model, whereas the SOD1^G93A mice were evaluated at 8 weeks (prior to starting drug administration) and then every 2-3 weeks until the end point at 16 weeks of age. The sciatic nerve was stimulated by means of single pulses delivered through needle electrodes placed at the sciatic notch. The compound muscle action potential (CMAP) was recorded from tibialis anterior (TA), gastrocnemius (GM) and plantar interossei muscles with microneedle electrodes (Mancuso et al., 2011). The CMAPs were amplified to measure the latency to the onset and the amplitude from baseline to the maximal negative peak. The mice were anesthetized with pentobarbital (50 mg/kg i.p.) and their body temperature was maintained by means of a thermostated warming pad.
For neuromuscular junctions (NMJ) labeling, 50 μm-thick longitudinal sections of TA muscle were serially cut. Sections were blocked with 5% normal donkey serum and incubated with primary antibodies rabbit anti-synaptophysin (1:500; AB32127, Abcam) and chicken anti-neurofilament 200 (NF200, 1:1000; AB5539, Millipore, USA) 48 h at 4° C. After washes, sections were incubated overnight with secondary antibody Alexa Fluor 594-donkey anti-rabbit and anti-chicken (1:200; A11042-A21207, Invitrogen, USA) and Alexa 488 conjugated α-bungarotoxin (1:500; B13422, Life Technologies, USA). Confocal images were captured (LSM 700 Axio Observer, Carl Zeiss, 40×Oil/z0.5) and the maximum projection images generated from 1.3 μm z projections. The proportion of innervated NMJs was calculated by classifying each endplate as occupied (when presynaptic terminals overly the endplate) or vacant (no presynaptic label in contact with the endplate). At least 60 endplates were analyzed per muscle.

Data set [6] has as its system rhizotomized mice (L4-L5 spinal nerve section). Description: L4-L5 spinal roots injury (rhizotomy): MN survival, glial reactivity, tolerability. The conditions noted are these: for number of spinal MNs in the ipsilateral ventral horn (L4-L5) / astroglial reactivity, GFAP integrated density / microglial reactivity, IBA1 integrated density: 42 dpi, mean±SEM.
Description: Briefly, the L4-L5 spinal roots were exposed by a small laminectomy on the right side. Then, roots were cut at the exit from the intervertebral foramina and the root stumps were separated. Mice were cared until recovery in warm environment.
The compounds were dissolved in 0.5% hydroxypropyl-methylcellulose (HPMC; Sigma-Aldrich) in distilled water. The compounds were administered by intraperitoneal (i.p.) route twice daily (bid) in a volume of 10 ml/kg. Administrations were given from 30 min after rhizotomy surgery until 42 days post-injury (dpi), the end of the study; in the SOD1^G93A study, treatments were given from 8 to 16 weeks of age.
At the end of follow up (42 days post-injury (dpi)) for rhizotomy and 16 weeks of age for ALS mice) the animals were deeply anesthetized and transcardially perfused with 4% paraformaldehyde in PBS. The lumbar spinal cord and the TA muscle were harvested and cryopreserved in 30% sucrose solution in PB. The spinal cords were serially cut in 20 μm-thick transverse sections with a cryostat (Leica). For MN counting, L4-L5 spinal cord sections separated 100 μm were stained for 3 h with an acidified solution of 3.1 mM cresyl violet.
Finally, sides were mounted with Fluoromount G. To quantify glial cell reactivity, images of the ventral horn were acquired with an epifluorescence microscope (Nikon Eclipse Ni, Japan) using the same conditions for each analyzed marker. After defining a threshold for background correction, the integrated density of GFAP or Iba1 labeling was measured using ImageJ software.
The nature of data set [7]: in vivo. The arrangement: species or system male SOD1^G93A mice. The conditions noted are these: mouse, ip; for concentration at 15 min: male, SOD1^G93A. The protocol:
Plasma levels were determined in the two in vivo models evaluated to be able to associate the pharmacological activity with the levels present in plasma. […] […] […] Results are expressed as mean±standard deviation (n=2-6).

Data set [8] is described as follows: in vivo. The following applies: female, C57-BL6, mouse, ip, 10 mg/kg; for half-life: t1/2 (terminal half-life).
Description: as §2
The conditions of data set [9]: cited from earlier work.
The nature of data set [10]: Plasma levels in the rhizotomy model after chronic i.p. administration. The conditions noted are these: mouse, in vivo, ip, 0.25 mg/kg. The arrangement: species or system female mice (B6SJL).
The mark [11] stands for this setting: female, C57-BL6, mouse, brain, ip, 10 mg/kg.
Setting [12] is: female, C57-BL6, mouse, plasma, ip, 10 mg/kg.
Setting [13] is: 5 mg/kg i.p. bid, untreated 6.9±0.5, WT 25.3±0.5.
[14] abbreviates: 0.5 mg/kg bid i.p., not significant.
Setting [15] is: 5 mg/kg bid i.p., untreated 19×10^4±5×10^4.
Where [16] appears, read: 5 mg/kg bid i.p., untreated 26×10^4±3×10^4.
Setting [17] is: twice daily i.p. administration for 6 weeks.

Chain of Sig-2R (Q5BJF2 whole entry): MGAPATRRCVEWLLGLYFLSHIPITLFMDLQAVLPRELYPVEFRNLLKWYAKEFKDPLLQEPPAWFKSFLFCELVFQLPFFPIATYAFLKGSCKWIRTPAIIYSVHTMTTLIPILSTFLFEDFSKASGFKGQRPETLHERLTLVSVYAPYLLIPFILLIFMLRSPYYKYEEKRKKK

For orientation: Tmax means the time at which the peak concentration occurs. For orientation: half-life means how long it takes for the measured level to halve. In general, AUC refers to concentration integrated over time. What is called Cmax is the highest concentration seen after dosing. What is called IC50 is the point on the concentration scale where inhibition reaches its midpoint. A lower IC50 goes with greater potency. Consider `C[C@@H]1OC2(CCN(Cc3ccc(F)cc3)CC2)CN(C)C1=O` [Compound A, (S)-9-(4-fluorobenzyl)-2,4-dimethyl-1-oxa-4,9-diazaspiro[5.5]undecan-3-one], for which the “affinity for the human Sig-1R” value in data set [1] is reported as “high affinity”. Further, in data set [2] (female, C57-BL6, mouse, brain and plasma, ip, 10 mg/kg), the Kp stood at 4.4. In data set [2] (setting [11]), the Tmax turned out to be 0.25 h and the half-life is over 5 h. Moreover, in data set [2] (setting [12]), the AUC stood at 1120 ng·h/mL, the Cmax came to 1350 ng/mL, the Tmax is 0.25 h and the half-life is over 5 h. Further, in data set [2] (brain), the “AUC, brain” value was determined as 4873 ng·h/g and the “Cmax, brain” value is listed as 5405 ng/g. For the same compound, in data set [2], the “penetration into the brain” value is reported as “good penetration into the brain”. In addition, the concentration for half-maximal inhibition (IC50) in data set [3] was over 10 µM. The “number of SMI-32 positive neurons vs THA condition” value in data set [4] (tested at 0.03, 0.3, 3 and 30 μM, significant at three concentrations) is “significantly more SMI-32 positive neurons”. In [5], the “NMJ innervation (proportion of innervated endplates) of hindlimb muscle” value (“NMJ innervation” for short) is on record as “tendency to preserve NMJ innervation”; the “CMAP amplitude of TA and plantar muscles” value is on record as “significantly prevented the decline in amplitude of the CMAP”; the “astrocyte activation (GFAP) in ventral horn” value (“astrocyte activation (GFAP)” below) is “significant decrease of astrocyte activation”. Further, the “number of surviving spinal MNs per section” value (“number … per section” below) in data set [5] (setting [13]) came out at 10.8±1.1. Moreover, the “number of spinal MNs in the ipsilateral ventral horn (L4-L5)” value (shortened to “number of spinal MNs”) in [6] (setting [14]) is reported as 7.6±0.9. Also, the “astroglial reactivity, GFAP integrated density” value (“astroglial reactivity” for short) in data set [6] (setting [15]) is recorded as 4×10^4±0.4×10^4. For the same compound, the “microglial reactivity, IBA1 integrated density” value (“microglial reactivity” below) in data set [6] (setting [16]) is given as 13×10^4±2×10^4. The “number of spinal MNs” value in data set [6] (5 mg/kg/bid i.p. for 6 weeks, untreated injured 6.8±0.3) is 8.6±0.6. Besides, the “toxicity on chronic administration” value in data set [6] (setting [17]) is on record as “did not cause toxicity”. In addition, in [7] (5 mg/kg), the concentration at 15 min is about 500 ng/mL and the estimated brain concentration entry was “about two-fold the concentration of compound B”.

On to `CCN1CC2(CCN(Cc3ccc(C#N)c(F)c3)CC2)O[C@@H](C)C1=O` [Compound B, (S)-4-((4-ethyl-2-methyl-3-oxo-1-oxa-4,9-diazaspiro[5.5]undecan-9-yl)methyl)-2-fluorobenzonitrile], for which the “affinity for the human Sig-1R” value in data set [1] was “high affinity”. Moreover, in data set [2] (brain), the “AUC, brain” value is 1698 ng·h/g and the “Cmax, brain” value turned out to be 2652 ng/g. Moreover, in [2], the “penetration into the brain” value was “good penetration into the brain”. Further, the IC50 in [3] is over 10 µM. Also, the “preservation of MNs (SMI-32 positive) vs THA condition” value in [4] (3 and 30 μM) is on record as “significantly preserved MNs”. Besides, in data set [8], the AUC was determined as 802 ng·h/mL, the concentration peaked (Cmax) at 1340 ng/mL, the Kp was 2.1 and the Tmax is 0.25 h. Moreover, the half-life in [8] (brain) is 3.4 h. This compound also gave a half-life in data set [8] (plasma) of 2.2 h. Moreover, in data set [5], the “NMJ innervation” value is on record as “tendency to preserve NMJ innervation” and the “astrocyte activation (GFAP)” value is recorded as “significant decrease of astrocyte activation”. Besides, the “number … per section” value in data set [5] (setting [13]) stood at 8.5±1.0. Also, the “number of spinal MNs” value in data set [6] (setting [14]) was 7.4±0.7. Moreover, the “astroglial reactivity” value in data set [6] (setting [15]) is recorded as 15×10^4±2.7×10^4. Further, the “microglial reactivity” value in [6] (setting [16]) is 25×10^4±4×10^4. Also, in data set [6] (setting [17]), the “body weight compared with the vehicle group” value is listed as “no difference in body weight” and the “toxicity on chronic administration” value is given as “did not cause toxicity”. Also, in data set [7] (5 mg/kg), the concentration at 15 min is about 500 ng/mL.

For the compound `O=C(OCCN1CCOCC1)C1(c2ccccc2)CCCCC1` [PRE-084, reference compound], the “Cmax, plasma” value in data set [9] (mouse, in vivo, ip, 10 mg/kg) was 659 ng/mL. In addition, the “Cmax, brain” value in data set [9] (single i.p. 10 mg/kg, concentration at 5 min post-administration, brain) was 774 ng/g. For the same compound, the “affinity for the human Sig-1R” value in [1] is given as “good affinity”. Further, in data set [5], the “NMJ innervation” value is reported as “significantly increased the proportion of innervated endplates”; the “CMAP amplitude of TA and plantar muscles” value is listed as “higher CMAP amplitude values”; the “astrocyte activation (GFAP)” value is “significant decrease of astrocyte activation”. The “number … per section” value in [5] (0.25 mg/kg i.p. bid) is reported as 12.4±0.9. In data set [6] (0.25 mg/kg bid i.p.), the “astroglial reactivity” value is recorded as 6×10^4±0.9×10^4 and the “microglial reactivity” value is 15×10^4±1.4×10^4. In addition, in data set [6] (0.25 mg/kg bid i.p., positive control), the “number of spinal MNs” value is listed as 8.9±0.4. The “Plasma concentration 30 min post-administration” value in [10] was 3.6 ng/mL. For the same compound, the “Plasma concentration 30 min post-administration” value in data set [7] (0.25 mg/kg) turned out to be 2.6 ng/mL.
